What was measured:
[1] = target: T1, GST-tagged MDM2 (Homo sapiens, UniProt Q00987); assay: HTRF enzyme inhibition assay, MDM2; assay type: biochemical; details: compound at 1 μM
T1 construct: purchased Cisbio Co. Ltd
Procedure: The enzymatic assay of test compounds is using the HTRF-based method provided by Cisbio Co. Ltd. In brief, the target compounds to be tested were prepared into samples with a concentration of 1 μM, which was added to GST-tagged MDM2 and HDAC1 proteins, respectively, then biotinylated substrate p53 peptide and HTRF detection reagents were added. The data obtained were processed by the ratio method, and the inhibition rates of MDM2 and HDAC1 were calculated. The detailed experimental procedures are according to the manufacturer’s protocols.

[2] = target: HDAC2 (Homo sapiens, UniProt Q92769); assay: HDAC isoform selectivity, HDAC2; assay type: biochemical; details: HDAC subtype panel
[3] = target: HDAC4 (Homo sapiens, UniProt P56524); assay: HDAC isoform selectivity, HDAC4; assay type: biochemical; details: HDAC subtype panel
[4] = target: T2, HDAC7 (Homo sapiens, UniProt Q8WUI4); assay: HDAC isoform selectivity, HDAC7; assay type: biochemical; details: HDAC subtype panel
T2 sequence (Q8WUI4 1-952): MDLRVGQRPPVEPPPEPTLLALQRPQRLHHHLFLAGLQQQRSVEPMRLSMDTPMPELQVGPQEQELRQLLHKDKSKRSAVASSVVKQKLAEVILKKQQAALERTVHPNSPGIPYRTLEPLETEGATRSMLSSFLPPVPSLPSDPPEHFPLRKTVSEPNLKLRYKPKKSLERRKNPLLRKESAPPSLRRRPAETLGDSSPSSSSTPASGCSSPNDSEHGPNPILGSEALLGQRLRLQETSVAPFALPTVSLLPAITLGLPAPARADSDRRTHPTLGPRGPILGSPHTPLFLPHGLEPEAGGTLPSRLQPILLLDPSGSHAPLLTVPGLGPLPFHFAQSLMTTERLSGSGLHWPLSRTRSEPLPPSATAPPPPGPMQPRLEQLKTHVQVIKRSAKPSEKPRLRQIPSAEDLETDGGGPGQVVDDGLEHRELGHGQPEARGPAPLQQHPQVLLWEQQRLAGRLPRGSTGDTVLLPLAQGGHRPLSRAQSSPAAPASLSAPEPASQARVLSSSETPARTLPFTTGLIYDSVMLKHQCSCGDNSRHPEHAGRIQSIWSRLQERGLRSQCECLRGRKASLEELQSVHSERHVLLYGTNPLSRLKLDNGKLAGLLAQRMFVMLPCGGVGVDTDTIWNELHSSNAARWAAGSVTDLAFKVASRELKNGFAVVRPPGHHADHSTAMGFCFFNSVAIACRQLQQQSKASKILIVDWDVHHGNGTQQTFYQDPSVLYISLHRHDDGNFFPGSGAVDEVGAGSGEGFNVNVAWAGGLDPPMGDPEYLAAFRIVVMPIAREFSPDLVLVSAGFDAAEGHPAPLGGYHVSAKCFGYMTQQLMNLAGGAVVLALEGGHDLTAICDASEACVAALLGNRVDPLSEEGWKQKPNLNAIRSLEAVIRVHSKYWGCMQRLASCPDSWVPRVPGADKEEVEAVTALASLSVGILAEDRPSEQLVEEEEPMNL

[5] = target: T3, HDAC8 (Homo sapiens, UniProt Q9BY41); assay: HDAC isoform selectivity, HDAC8; assay type: biochemical; details: HDAC subtype panel
T3 sequence (Q9BY41 1-377): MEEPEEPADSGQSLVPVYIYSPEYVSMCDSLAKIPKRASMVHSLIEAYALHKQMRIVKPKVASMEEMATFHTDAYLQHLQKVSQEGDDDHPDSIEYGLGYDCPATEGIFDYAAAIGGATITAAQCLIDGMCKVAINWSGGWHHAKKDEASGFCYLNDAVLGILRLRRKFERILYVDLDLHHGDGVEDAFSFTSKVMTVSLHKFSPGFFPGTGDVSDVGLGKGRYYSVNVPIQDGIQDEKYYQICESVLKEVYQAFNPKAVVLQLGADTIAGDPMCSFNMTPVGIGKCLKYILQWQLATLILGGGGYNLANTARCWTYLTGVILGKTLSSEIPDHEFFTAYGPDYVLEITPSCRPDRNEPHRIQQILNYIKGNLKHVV

[6] = system: MCF-7 cells; assay: TUNEL staining apoptosis assay; assay type: cell-based, human; details: MCF-7, 0.5 μM, 24 h, compared with SAHA and Nutlin-3
Procedure: It was reported that the inactivation of HDAC and/or MDM2 could increase the percentage of apoptosis cells ([85]–[87]). Therefore, three methods were applied to assess the effect of MDM2-HDAC dual inhibitor 11b on the apoptosis of MCF-7 cells. […] Subsequently, the annexin V-FITC/propidium iodide (PI) double staining method was carried out to quantitatively detect the effect of compound 11b on cell apoptosis (Figure 9B).
TUNEL assay was performed using in situ apoptosis detection kit (Promega, USA), according to the manufacturer’s protocols. […] After 24 h incubation, cells were plated onto the slides, fixed in 4% paraformaldehyde in PBS for 25 min, and then washed with PBS twice. After that, the cells were incubated in TUNEL reaction mixture at 37°C for 60 min. Then nuclei were counterstained with DAPI, and cells were checked under an immunofluorescent confocal microscopy (Olympus FV1000).

[7] = target: T1, GST-tagged MDM2; assay: HTRF enzyme inhibition assay, MDM2; assay type: biochemical
[8] = system: A431 cells; assay: MTT antiproliferative assay, A431; details: Homo sapiens, A-431, read-out: IC50 A431
Procedure: (§1) The cytotoxicity assay was performed with MTT method as previously described ([73], [88], [89]).

[9] = system: MCF-7 cells; assay: MTT antiproliferative assay, MCF-7; details: Homo sapiens, MCF7, read-out: IC50 MCF-7
Procedure: as §1

[10] = target: HDAC1 (Homo sapiens, UniProt Q13547); assay: HTRF enzyme inhibition assay, HDAC1
[11] = system: HCT116 cells; assay: MTT antiproliferative assay, HCT116; details: Homo sapiens, HCT-116, read-out: IC50 HCT116
Procedure: as §1

HDAC1, sequence (Q13547 whole entry): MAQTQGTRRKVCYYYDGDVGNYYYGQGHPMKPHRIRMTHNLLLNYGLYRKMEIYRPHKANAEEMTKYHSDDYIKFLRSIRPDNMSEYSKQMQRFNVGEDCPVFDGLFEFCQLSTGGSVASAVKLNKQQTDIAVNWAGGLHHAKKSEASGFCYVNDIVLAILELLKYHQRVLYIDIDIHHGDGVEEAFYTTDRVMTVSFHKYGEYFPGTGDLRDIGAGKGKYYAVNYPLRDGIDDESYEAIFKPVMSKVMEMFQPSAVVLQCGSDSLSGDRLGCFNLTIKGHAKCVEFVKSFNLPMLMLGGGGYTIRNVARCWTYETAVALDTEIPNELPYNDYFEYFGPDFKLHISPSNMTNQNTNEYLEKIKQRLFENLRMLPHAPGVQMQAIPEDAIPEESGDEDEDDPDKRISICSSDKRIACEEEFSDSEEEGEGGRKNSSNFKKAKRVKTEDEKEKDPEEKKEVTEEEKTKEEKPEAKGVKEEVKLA
T1 sequence (Q00987 whole entry): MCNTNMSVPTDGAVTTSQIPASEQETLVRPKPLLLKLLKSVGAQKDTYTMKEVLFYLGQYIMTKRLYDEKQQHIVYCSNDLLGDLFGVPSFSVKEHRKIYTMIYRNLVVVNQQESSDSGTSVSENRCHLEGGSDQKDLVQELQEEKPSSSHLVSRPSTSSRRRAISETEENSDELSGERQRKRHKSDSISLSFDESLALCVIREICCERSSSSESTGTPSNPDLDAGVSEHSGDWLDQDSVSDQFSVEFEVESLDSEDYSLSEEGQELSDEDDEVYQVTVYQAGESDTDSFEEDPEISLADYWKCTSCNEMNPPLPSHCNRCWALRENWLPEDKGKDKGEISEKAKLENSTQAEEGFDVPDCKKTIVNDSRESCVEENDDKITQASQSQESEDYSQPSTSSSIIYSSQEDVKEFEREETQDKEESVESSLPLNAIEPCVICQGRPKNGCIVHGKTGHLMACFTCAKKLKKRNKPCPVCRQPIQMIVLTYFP
HDAC4, sequence (P56524 whole entry, canonical isoform): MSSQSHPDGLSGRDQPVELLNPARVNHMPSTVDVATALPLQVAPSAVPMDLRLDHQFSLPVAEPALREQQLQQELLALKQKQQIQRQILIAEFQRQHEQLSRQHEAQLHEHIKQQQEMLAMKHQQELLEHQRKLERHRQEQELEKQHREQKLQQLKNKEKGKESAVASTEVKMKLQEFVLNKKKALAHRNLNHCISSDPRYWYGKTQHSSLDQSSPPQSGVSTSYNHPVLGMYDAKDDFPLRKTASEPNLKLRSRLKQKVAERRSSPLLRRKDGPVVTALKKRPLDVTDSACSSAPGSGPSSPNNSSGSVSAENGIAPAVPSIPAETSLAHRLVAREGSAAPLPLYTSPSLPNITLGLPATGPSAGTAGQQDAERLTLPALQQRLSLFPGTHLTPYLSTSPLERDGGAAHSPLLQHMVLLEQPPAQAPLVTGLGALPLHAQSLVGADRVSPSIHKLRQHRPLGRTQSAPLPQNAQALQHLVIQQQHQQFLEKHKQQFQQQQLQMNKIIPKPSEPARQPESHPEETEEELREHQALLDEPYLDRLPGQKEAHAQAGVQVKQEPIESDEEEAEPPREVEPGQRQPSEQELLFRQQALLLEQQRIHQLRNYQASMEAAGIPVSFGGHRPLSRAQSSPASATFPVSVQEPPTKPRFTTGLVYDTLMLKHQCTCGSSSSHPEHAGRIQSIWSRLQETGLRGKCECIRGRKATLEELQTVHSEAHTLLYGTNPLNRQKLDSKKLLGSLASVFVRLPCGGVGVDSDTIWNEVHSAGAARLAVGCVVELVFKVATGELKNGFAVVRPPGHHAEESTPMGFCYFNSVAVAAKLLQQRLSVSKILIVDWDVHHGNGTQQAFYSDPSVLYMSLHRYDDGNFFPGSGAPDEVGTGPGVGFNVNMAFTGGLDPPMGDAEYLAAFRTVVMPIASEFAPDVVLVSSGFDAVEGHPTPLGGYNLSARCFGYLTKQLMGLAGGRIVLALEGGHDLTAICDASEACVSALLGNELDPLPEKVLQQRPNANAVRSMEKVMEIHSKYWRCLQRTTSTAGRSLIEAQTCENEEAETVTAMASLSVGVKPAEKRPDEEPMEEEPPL
HDAC2, sequence (Q92769 whole entry, canonical isoform): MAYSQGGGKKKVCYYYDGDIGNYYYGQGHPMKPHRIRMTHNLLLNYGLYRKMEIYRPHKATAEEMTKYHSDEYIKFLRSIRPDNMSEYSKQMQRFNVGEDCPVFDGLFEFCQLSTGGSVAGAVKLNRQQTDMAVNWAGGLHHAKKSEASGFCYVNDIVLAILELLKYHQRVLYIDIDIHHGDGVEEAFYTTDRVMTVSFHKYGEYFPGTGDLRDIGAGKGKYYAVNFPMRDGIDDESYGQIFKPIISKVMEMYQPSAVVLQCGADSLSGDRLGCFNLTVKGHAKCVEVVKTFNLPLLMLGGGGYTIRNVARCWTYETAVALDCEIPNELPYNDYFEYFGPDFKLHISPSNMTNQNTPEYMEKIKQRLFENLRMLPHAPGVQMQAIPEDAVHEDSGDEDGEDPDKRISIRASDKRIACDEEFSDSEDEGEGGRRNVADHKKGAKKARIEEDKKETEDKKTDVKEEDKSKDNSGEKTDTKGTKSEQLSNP

O=C(CCCCCCC(=O)N1CCC(C(=O)Nc2ccc([C@@H]3[C@H]4CSCN4[C@]4(C(=O)Nc5cc(Cl)ccc54)[C@H]3C(=O)c3ccccc3)cc2)CC1)NO [compound 11b, N-(4-((3R,6'S,7'R,7a'S)-6'-benzoyl-6-chloro-2-oxo-1',6',7',7a'-tetrahydro-3'H-spiro[indoline-3,5'-pyrrolo[1,2-c]thiazol]-7'-yl)phenyl)-1-(8-(hydroxyamino)-8-oxooctanoyl)piperidine-4-carboxamide] was tested, and the inhibition at 1 µM [1] was 68%, the IC50 [2] was 64 ± 4 nM and the IC50 [3] was > 10000 nM. For the same compound, the IC50 [4] was > 10000 nM, the IC50 [5] was 313 ± 23 nM and the “apoptotic positive cells by TUNEL staining” value [6] was “significantly higher number of apoptotic positive cells”. For the same compound, the IC50 [7] was 339 ± 68 nM, the IC50 [8] was 1890 ± 880 nM and the IC50 [9] was 1370 ± 450 nM. It also gave an IC50 [10] of 58 ± 5 nM, an inhibition at 1 µM ([10]; read-out: % enzyme inhibition HDAC) of 79% and an IC50 [11] of 2540 ± 1070 nM.

From article PMC9386376, “Discovery of spirooxindole-derived small-molecule compounds as novel HDAC/MDM2 dual inhibitors and investigation of their anticancer activity” (Frontiers in Oncology, 2022)
